Experimental data as given in article PMC4430599, “Population pharmacokinetics of intravenous and oral panobinostat in patients with hematologic and solid tumors” (European Journal of Clinical Pharmacology, 2015).

Columns and labels:
CYP3A4 = tested on: CYP3A4; parameters: method as in PMID 21706316; conditions: coadministered CYP3A4 inhibitor; cited from earlier work
[1] = parameters: method as in ref 17 = [17]; 17. Woo MM, Culver K, Li W, Liu A, Scott J, Parker K, Jalaluddin M, Laird G, Cooper MR, Schran HF (2008) Panobinostat (LBH589) pharmacokinetics (PK): implications for clinical safety and efficacy. Ann; conditions: oral, 60 mg; cited from earlier work
[2] = parameters: method as in PMID 22864948; conditions: cited from earlier work
[3] = parameters: method as in PMID 25939707; conditions: cited from earlier work
[4] = Population pharmacokinetic analysis (NONMEM), first final model; format: in vivo, patients
Description: (§1) A population PK data set was constructed from 581 patients with advanced hematologic and solid tumors who participated in 14 phase 1 and phase 2 studies of panobinostat (Table 1). Studies A2101 and A2102 used IV panobinostat, whereas all other studies examined oral formulations of panobinostat. The CSF was used in two of the oral panobinostat studies, B2101and B2102, whereas the remaining studies used the FMI formulation. The two phase 1 dose-escalation studies of IV panobinostat used doses of 1.2 to 20 mg/m^2 daily administered under various intermittent regimens. In three phase 1 dose-escalation studies, patients received oral panobinostat at doses ranging from 10 to 80 mg/day (administered weekly on days 1, 3, and 5; or every other week; or on days 1 and 4 every week). In five phase 2 studies, patients with cutaneous T cell lymphoma, chronic myeloid leukemia, and multiple myeloma received 20 mg panobinostat orally per day on days 1, 3, and 5 weekly. In three clinical pharmacology studies, patients received oral panobinostat at 20 mg under various regimens for study-specific purposes: in cycle 1 followed by 20 mg per day (days 1, 3, and 5 weekly) or 45 mg (days 1 and 4 weekly) in subsequent cycles. In a phase 2 study of Hodgkin lymphoma, patients received 40 mg panobinostat on days 1, 3, and 5 weekly.
(§2) PK sampling generally occurred from predose through 48 h after each oral dose or predose through 24 h after each IV dose. Panobinostat was precipitated from plasma samples, evaporated to dryness, reconstituted with 10 % aqueous acetonitrile (containing 0.2 % formic acid), and analyzed by liquid chromatography–tandem mass spectrometry assay. The assay was linear from 0.5 to 500 ng/mL [15], and the bias and coefficient of variation (CV) values of the quality-control sample results ranged from −0.7 to 0.7 % and 2.3 to 11.6 %, respectively. The lower limit of quantification of panobinostat was 0.5 ng/mL for all studies except B2201 and B2203, for which it was 0.1 ng/mL. Values below the lower limit of quantification (6 % of the total) were excluded.
The data sets for modeling were prepared using SAS version 9.2. The time of panobinostat dosing or collection of blood was computed based on the date and time when available. When the date or time was unknown, collection times were estimated based on time of examinations or schedule in the protocol. Demographic information, including age, body weight, height, sex, and race, was collected at screening and used in the analysis. […] BSA (m^2) was computed via the Gehan–George formula as 234.94×Weight^0.515×Height^0.422/10000 where weight is in kilograms and height is in centimeters. […] was computed via the Cockroft–Gault formula as 140−Age×Weight×0.85forfemales/72×Creatinine/88.4 where creatinine was in micromoles per liter.
The model was developed based on the methods described by Wahlby and colleagues. Scatterplots used to visualize the plasma concentration vs. time profile were generated using R version 2.8.1 and SAS version 9.2. PK model building was conducted using the first-order conditional estimation method with INTERACTION (FOCEI) option, using the default three significant digits for convergence, within the software program nonlinear mixed-effect modeling (NONMEM) extended version VI and version VII. Random interindividual variability parameters were estimated using exponential parameterization. The exponential error models ensured that parameter estimates were within reasonable physiological bounds; negative values were not possible. Model selection criteria were based on both objective function values (OFVs), as generated by NONMEM, and graphic diagnostic plots. For each model analyzed, NONMEM calculated the minimum value of the OFV—a statistic that, up to an additive constant, is minus twice the log likelihood of the data. […]

[5] = parameters: method as in PMID 16899611; conditions: IV, highest dose administered 14 mg/m^2; refractory hematologic tumors; cited from earlier work
[6] = Population pharmacokinetic analysis (NONMEM), second final model; format: in vivo, patients
Description: as §1, §2
The model was developed based on the methods described by Wahlby and colleagues. Scatterplots used to visualize the plasma concentration vs. time profile were generated using R version 2.8.1 and SAS version 9.2. PK model building was conducted using the first-order conditional estimation method with INTERACTION (FOCEI) option, using the default three significant digits for convergence, within the software program nonlinear mixed-effect modeling (NONMEM) extended version VI and version VII. Random interindividual variability parameters were estimated using exponential parameterization. The exponential error models ensured that parameter estimates were within reasonable physiological bounds; negative values were not possible. Model selection criteria were based on both objective function values (OFVs), as generated by NONMEM, and graphic diagnostic plots. For each model analyzed, NONMEM calculated the minimum value of the OFV—a statistic that, up to an additive constant, is minus twice the log likelihood of the data. When two models are nested and the additional parameters of the larger model are not needed, the difference in their minimum OFV is asymptotically χ^2 distributed, with the number of degrees of freedom equal to the number of parameters not common to the two models. The likelihood ratio test compared the two models on the basis of the difference in their OFV values.
PK data from both the IV and oral routes were fitted simultaneously in order to allow for estimation of the oral bioavailability. Several models were explored, including two-compartment and three-compartment models with first-order elimination. […]

[7] = parameters: method as in ref 22 (a number printed in a supplementary file, which may have a reference list of its own: not looked up in the article's list); conditions: second final model; allometric exponent of weight on V2, assumed, no bootstrap; cited from earlier work
plasma protein = conditions: independent of the drug concentration in plasma; no reference given; cited from earlier work
[8] = parameters: method as in PMID 25377157; conditions: patients with solid tumors with normal renal function; cited from earlier work

## Cc1[nH]c2ccccc2c1CCNCc1ccc(/C=C/C(=O)NO)cc1 [panobinostat]
CYP3A4
  panobinostat exposure with ketoconazole: significant increases
[1]
  mean Cmax: 71 ng/mL
[2]
  number of circulating metabolites: approximately 40
[3]
  panobinostat exposure with liver impairment: significant increases
[4]; dose range of 10 to 80 mg across the 14 studies, CL and V2 related to dose
  dose proportionality of PK: dose proportional
[4]; first final model
  K23: 1.810 h⁻¹
  K24: 1.424 h⁻¹
  K32: 0.507 h⁻¹
  K42: 0.040 h⁻¹
  interindividual (inter-patient) variability in clearance: 74%
[4]; first final model, covariance CL-V2
  OM.CLV2 (Omega 2,1): 0.178
[4]; first final model, exponent of (BSA/1.9) on V2
  V2.BSA: 1.359
[4]; first final model, exponent of (age/61) on V2
  V2.AGE: 0.396
[4]; first final model, interindividual variance of V2
  OM.V2 (Omega 2,2): 0.334
[4]; first final model, multiplicative factor on V2, Asian vs Caucasian
  V2.ASIAN: 1.373
[4]; first final model, multiplicative factor on V2, black vs Caucasian
  V2.BLACK: 1.241
[4]; first final model, multiplicative factor on V2, other race vs Caucasian
  V2.OTHER: 1.127
[4]; first final model, oral, fraction
  F1 (bioavailability): 0.214
[4]; first final model, patient with BSA 1.9 m^2
  CL (clearance): 33.085 L/h
[4]; first final model, reference BSA 1.9 m^2, age 61, Caucasian
  V2 (volume of the central compartment): 24.838 L
[4]; human, plasma, other: IV and oral routes fitted simultaneously, first final model, patient with BSA 1.9 m^2, read-out: CL (clearance) (converted)
  clearance: 552 mL/min
[4]; human, plasma, other: IV and oral routes fitted simultaneously, calculated based on the final parameter estimates, read-out: terminal half-life (converted)
  half-life: ~37 h
[4]; human, plasma, first final model, oral, read-out: absolute bioavailability
  bioavailability: 21.4%
[5]
  maximum concentration (Cmax, mean ± SD): 565.6 ± 450.9 ng/mL
[6]; covariance CL-V2
  OM.CLV2 (Omega 2,1): 0.151
[6]; covariance Q3-V3
  OM.Q3V3 (Omega 4,3): 0.505
[6]; covariance Q4-V4
  OM.Q4V4 (Omega 6,5): 0.556
[6]; exponent of (age/61) on Q3
  Q3.AGE: 0.410
[6]; exponent of (age/61) on Q4
  Q4.AGE: 0.212
[6]; exponent of (age/61) on V2
  V2.AGE: -0.005
[6]; exponent of (age/61) on V3
  V3.AGE: 0.713
[6]; exponent of (age/61) on V4
  V4.AGE: 0.530
[6]; human, plasma, oral, fraction, read-out: F1 (bioavailability)
  bioavailability: 19.4%
[6]; human, plasma, other: intravenous and oral, fitted simultaneously, reference weight 70 kg, age 61, Caucasian
  clearance: 481 mL/min
[6]; interindividual variance of Q3
  OM.Q3 (Omega 3,3): 0.666
[6]; interindividual variance of Q4
  OM.Q4 (Omega 5,5): 0.497
[6]; interindividual variance of V2
  OM.V2 (Omega 2,2): 1.668
[6]; interindividual variance of V3
  OM.V3 (Omega 4,4): 0.441
[6]; interindividual variance of V4
  OM.V4 (Omega 6,6): 0.700
[6]; multiplicative factor on V2, Asian vs Caucasian
  V2.ASIAN: 2.060
[6]; multiplicative factor on V2, black vs Caucasian
  V2.BLACK: 1.817
[6]; multiplicative factor on V2, other race vs Caucasian
  V2.OTHER: 0.835
[6]; reference weight 70 kg, age 61
  V3 (peripheral volume): 71.874 L
  V4 (peripheral volume): 803.193 L
[6]; reference weight 70 kg, age 61, Caucasian
  V2: 30.862 L
[7]
  V2.WT: 1.000
Plasma protein
  plasma protein binding: 90%
[8]
  fraction excreted unchanged in the urine: < 2.5%
